Experiment: Orlistat transfer into oil in vitro
Type: physicochemical
Settings: after 10 min
Procedure: Orlistat (4 mg) suspensions stabilized by sucroseesters (2 mg) were transferred into 5 ml of a 10% oil in water emulsion (pH value 4.5; oil components: olive oil and cream respectively). The dispersion underwent end-over end mixing for a desired period of time. The oil phase was separated by cold centrifugation and the orlistat content in the oil phase was determined by HPLC. For comparison, an adequate experiment was also performed with a suspension of XENICAL® brand of orlistat-containing pharmaceutical composition. L-1695, P-1670, S-1670, O-1570 are commercial sucroseesters (Sucroselaurate, Sucrosepalmitate, Sucrosestearate, Sucroseoleate respectively) from Mitsubishi-Kagaku Foods, Japan.

## CCCCCCCCCCC[C@@H](C[C@@H]1OC(=O)[C@H]1CCCCCC)OC(=O)[C@H](CC(C)C)NC=O [orlistat]
  transfer into olive oil, times more efficient than transfer into cream: 7

From patent publication US8343543B2, “Lipase inhibiting composition” (Hoffmann-La Roche Inc., priority 2001, dated 2013)
